# Test: Ex vivo biodistribution (gamma counter)
# Type: in vivo, healthy male C57BL/6 mice
# Details: 2 h post administration
# Method: For animal injection, the tracer was prepared at high molar activity. Radiolabeling of H4Tetrathiol (10^–2 M in DMSO; 40 μL for imaging, 20 μL for bioD) (or DMSO, for [^197m/gHg]HgCl2 mice) with [^197m/gHg]HgCl2 (imaging: 26.7 MBq total m + g, 62 μL; bioD: 13.04 MBq total m + g, 31 μL) was performed in a mixture of ammonium acetate buffer (1 M; pH 7; 198 μL for imaging or 149 μL for bioD) and 6 M NaOH (72 μL or 38 μL required to achieve a pH of 7.5 after addition of activity, for imaging or BioD labeling, respectively). The reaction was allowed to stand for 1 h at 37 °C and quantitative (> 99%) non-isolated percentage radiochemical yield (%RCY) was confirmed via the iTLC methods mentioned above. Further, 100 µL of the reaction was diluted with 50 µL of PBS Tween-20 (0.01 M sodium phosphate, 0.15 M NaCl, 0.05% Tween-20) for imaging mice, or 50 µL of the reaction was diluted with 100 µL of PBS Tween-20 for BioD mice. The tracers were prepared immediately before injection to avoid radiolysis and minimize the tracer loss to any surfaces due to its lipophilicity. The injected doses of each isomer, ^197mHg and ^197gHg, were quantified by measuring an aliquot of known volume of each tracer preparation via HPGe gamma spectroscopy and decay corrected for time of injection using the Eqs. (1) and (2).
# The study was conducted in compliance with the guidelines set by the Canadian Council on Animal Care (CCAC) and approved by the Animal Care Committee (ACC) at the University of British Columbia (A20-0132). A total of eight healthy male C57BL/6 mice weighing approximately 30 g for group 1 and 25 g for group 2 were used in the study. The mice were divided into two experimental groups: group 1 (n = 4) received free [^197m/gHg]HgCl2, while group 2 (n = 4) received [^197m/gHg]Hg-Tetrathiol. Within each group, one mouse was allocated for imaging, while the rest were designated for ex vivo biodistribution analysis. For SPECT imaging, the designated mice were anesthetized using isoflurane via a precision vaporizer. […] Once anesthetized, each imaging mouse received an intravenous (IV) injection via the lateral tail vein of 150 μL of [^197m/gHg]HgCl2 (0.492 MBq ^197mHg + 3.171 MBq ^197gHg) or [^197m/gHg]Hg-Tetrathiol (0.899 MBq ^197mHg + 4.230 MBq ^197gHg) in PBS Tween-20 (0.01 M Na Phosphate, 0.15 M NaCl, 0.05% Tween-20).
# Mice received an IV injection of [^197m/gHg]HgCl2 (0.275 MBq ^197mHg + 1.758 MBq ^197gHg, 150 μL) or [^197m/gHg]Hg-Tetrathiol (0.384 MBq ^197mHg + 1.733 MBq ^197gHg, 150 μL) (n = 3 per group) via the lateral tail vein using a Tailveiner restrainer. After the injection, the mice were returned to their experimental cages and allowed unrestricted movement. Biodistribution studies were conducted 2 h after administration. Mice were humanely euthanized with an overdose of isoflurane followed by cardiac puncture to collect blood pool activity. The organs of interest were fully extracted, cleaned of blood without rinsing, weighed, and analysed for radioactivity using a calibrated gamma counter with the 55–93 keV energy window for ^197gHg and the 110–160 keV energy window for ^197mHg (Packard Cobra II, Perkin Elmer, Waltham, MA, USA). The stomach and intestines were carefully cleaned prior to analysis to remove residual contents. For tissues and fluids that could not be fully removed (muscle, blood and bone) activity values were extrapolated based on standardised organ weights for age- and sex-matched mice tables to ensure accurate normalization (Davies and Morris [1993]; Foster et al. [2014]). The stomach and whole intestines were cleaned before analysis. The radioactivity measurements were decay corrected for time of injection using the Eqs. (1) and (2). The results are reported as the percentage of the injected activity per gram of tissue (%IA/g) and percentage of the injected activity per tissue (%IA/organ).
compound,measurement,setting,value
O=C(CC[S-])OCC(COC(=O)CC[S-])(COC(=O)CC[S-])COC(=O)CC[S-].[Hg+2] [[^197m/gHg]Hg-Tetrathiol],Animal 4 (%IA/g) g: heart,Hg-197g,0.72 %IA/g
same,Animal 4 (%IA/g) g: kidneys,Hg-197g,2.58 %IA/g
same,Animal 4 (%IA/g) g: large intestine,Hg-197g,0.04 %IA/g
same,Animal 4 (%IA/g) g: liver,Hg-197g,460.16 %IA/g
same,Animal 4 (%IA/g) g: lungs,Hg-197g,6.68 %IA/g
same,Animal 4 (%IA/g) g: muscle,Hg-197g,0.02 %IA/g
same,Animal 4 (%IA/g) g: pancreas,Hg-197g,0.05 %IA/g
same,Animal 4 (%IA/g) g: small intestine,Hg-197g,0.13 %IA/g
same,Animal 4 (%IA/g) g: spleen,Hg-197g,73.76 %IA/g
same,Animal 4 (%IA/g) g: stomach,Hg-197g,0.12 %IA/g
same,Animal 4 (%IA/g) g: tail,Hg-197g,5.66 %IA/g
same,Animal 4 (%IA/g) g: urine,Hg-197g,0.03 %IA/g
same,Average (%IA/Organ): bladder,Hg-197g,0.00 %IA/Organ
same,Average (%IA/Organ): blood,Hg-197g,0.16 %IA/Organ
same,Average (%IA/Organ): bone,Hg-197g,2.70 %IA/Organ
same,Average (%IA/Organ): brain,Hg-197g,0.01 %IA/Organ
same,Average (%IA/Organ): feces,Hg-197g,0.00 %IA/Organ
same,Average (%IA/Organ): heart,Hg-197g,0.09 %IA/Organ
same,Average (%IA/Organ): kidneys,Hg-197g,1.13 %IA/Organ
same,Average (%IA/Organ): large intestine,Hg-197g,0.02 %IA/Organ
same,Average (%IA/Organ): lungs,Hg-197g,0.97 %IA/Organ
same,Average (%IA/Organ): muscle,Hg-197g,0.19 %IA/Organ
same,Average (%IA/Organ): pancreas,Hg-197g,0.01 %IA/Organ
same,Average (%IA/Organ): small intestine,Hg-197g,0.02 %IA/Organ
same,Average (%IA/Organ): spleen,Hg-197g,4.17 %IA/Organ
same,Average (%IA/Organ): stomach,Hg-197g,0.04 %IA/Organ
same,Average (%IA/Organ): tail,Hg-197g,1.05 %IA/Organ
same,Average (%IA/Organ): urine,Hg-197g,0.00 %IA/Organ
same,Average Hg-197g (%IA/g): bladder,Hg-197g,0.049 %IA/g
same,Average Hg-197g (%IA/g): blood,Hg-197g,0.11 %IA/g
same,Average Hg-197g (%IA/g): bone,Hg-197g,1.42 %IA/g
same,Average Hg-197g (%IA/g): brain,Hg-197g,0.025 %IA/g
same,Average Hg-197g (%IA/g): feces,Hg-197g,0.023 %IA/g
same,Average Hg-197g (%IA/g): heart,Hg-197g,0.71 %IA/g
same,Average Hg-197g (%IA/g): kidneys,Hg-197g,2.96 %IA/g
same,Average Hg-197g (%IA/g): large intestine,Hg-197g,0.079 %IA/g
same,Average Hg-197g (%IA/g): liver,Hg-197g,202.37 %IA/g
same,Average Hg-197g (%IA/g): lungs,Hg-197g,7.10 %IA/g
same,Average Hg-197g (%IA/g): muscle,Hg-197g,0.017 %IA/g
same,Average Hg-197g (%IA/g): pancreas,Hg-197g,0.058 %IA/g
same,Average Hg-197g (%IA/g): small intestine,Hg-197g,0.11 %IA/g
same,Average Hg-197g (%IA/g): spleen,Hg-197g,64.43 %IA/g
same,Average Hg-197g (%IA/g): stomach,Hg-197g,0.37 %IA/g
same,Average Hg-197g (%IA/g): tail,Hg-197g,2.18 %IA/g
same,Average Hg-197g (%IA/g): urine,Hg-197g,0.029 %IA/g
same,Animal 1 (%IA/g) m: bladder,Hg-197m,0.05 %IA/g
same,Animal 1 (%IA/g) m: blood,Hg-197m,0.10 %IA/g
same,Animal 1 (%IA/g) m: bone,Hg-197m,2.09 %IA/g
same,Animal 1 (%IA/g) m: brain,Hg-197m,0.04 %IA/g
same,Animal 1 (%IA/g) m: feces,Hg-197m,0.04 %IA/g
same,Animal 1 (%IA/g) m: heart,Hg-197m,0.47 %IA/g
same,Animal 1 (%IA/g) m: kidneys,Hg-197m,5.53 %IA/g
same,Animal 1 (%IA/g) m: large intestine,Hg-197m,0.14 %IA/g
same,Animal 1 (%IA/g) m: lungs,Hg-197m,9.10 %IA/g
same,Animal 1 (%IA/g) m: muscle,Hg-197m,0.01 %IA/g
same,Animal 1 (%IA/g) m: pancreas,Hg-197m,0.06 %IA/g
same,Animal 1 (%IA/g) m: small intestine,Hg-197m,0.16 %IA/g
same,Animal 1 (%IA/g) m: spleen,Hg-197m,74.83 %IA/g
same,Animal 1 (%IA/g) m: stomach,Hg-197m,0.19 %IA/g
same,Animal 1 (%IA/g) m: tail,Hg-197m,1.72 %IA/g
same,Animal 1 (%IA/g) m: urine,Hg-197m,0.03 %IA/g
same,Animal 2 (%IA/g) m: bladder,Hg-197m,0.02 %IA/g

# — article PMC12521730, “Quantitative dual-isotope preclinical SPECT/CT imaging and biodistribution of the mercury-197m/g theranostic pair with [^197m/gHg]HgCl2 and a [^197m/gHg]Hg-tetrathiol complex as a platform for radiopharmaceutical development” (EJNMMI Radiopharmacy and Chemistry, 2025)
